Assay: xn = mol fraction of the nth substance listed
Settings: 101 kPa

CCC[N+]1(C)CCCC1.O=S(=O)([N-]S(=O)(=O)C(F)(F)F)C(F)(F)F + O=C1CCCO1
viscosity [mPa·s]
Settings | 278.15 K | 288.15 K | 298.15 K | 308.15 K | 318.15 K | 328.15 K | 338.15 K | 348.15 K | 358.15 K
x1 = 0.0657 | – | 3.14 | 2.65 | 2.296 | 1.951 | 1.694 | – | 1.328 | 1.191
x1 = 0.1741 | 6.97 | – | 4.45 | 3.67 | 3.08 | – | – | – | –
x1 = 0.3874 | 16.24 | 11.87 | 9.04 | 7.09 | 5.71 | 4.7 | 3.95 | 3.37 | 2.92
x1 = 1 | – | 96.2 | 60.6 | 40.8 | 28.9 | 21.3 | 16.29 | 12.82 | –

O=C1CCCO1 + CCC[N+]1(C)CCCC1.O=S(=O)([N-]S(=O)(=O)C(F)(F)F)C(F)(F)F
x2 = 0
Settings | viscosity [mPa·s]
278.15 K | 2.56
298.15 K | 1.859
308.15 K | 1.641
328.15 K | 1.242
338.15 K | 1.106
358.15 K | 0.894

Reference: a compilation of properties of binary mixtures (doi:10.1016/j.molliq.2022.119758)
